From ChEMBL document CHEMBL4304773, “Nitroimidazole-containing compounds and their antibacterial and antitubercular activities” (2019)
In brackets after ≈: the same amount, converted by molar mass. Values belong to the compound of their own block, whether it stands above or below them.

How the values were obtained:
Format in all cases: functional
Staphylococcus aureus [1] = experiment: Antibacterial activity against Staphylococcus aureus ATCC 25923
Escherichia coli [2] = experiment: Antibacterial activity against Escherichia coli
Escherichia coli [3] = experiment: Antibacterial activity against Escherichia coli ATCC 25922
Pseudomonas aeruginosa [4] = experiment: Antibacterial activity against Pseudomonas aeruginosa
Enterococcus faecalis = experiment: Antibacterial activity against Enterococcus faecalis
Staphylococcus aureus [5] = experiment: Antibacterial activity against Staphylococcus aureus ATCC 29213
Pseudomonas aeruginosa [6] = experiment: Antibacterial activity against Pseudomonas aeruginosa ATCC 27853
Klebsiella pneumoniae = experiment: Antibacterial activity against Klebsiella pneumoniae
Staphylococcus aureus [7] = experiment: Antibacterial activity against methicillin-resistant Staphylococcus aureus N315
Acinetobacter baumannii = experiment: Antibacterial activity against Acinetobacter baumannii
Escherichia coli [8] = experiment: Antibacterial activity against Escherichia coli infected in mouse
Bacillus subtilis = experiment: Antibacterial activity against Bacillus subtilis ATCC 530 after 24 hrs by NCCLS method; settings: ATCC 530, 24 h
Pseudomonas aeruginosa [9] = experiment: Antibacterial activity against Pseudomonas aeruginosa ATCC 27853 after 24 hrs by NCCLS method; settings: ATCC 27853, 24 h
Escherichia coli [10] = experiment: Antibacterial activity against Escherichia coli ATCC 25922 after 24 hrs by NCCLS method; settings: ATCC 25922, 24 h
Staphylococcus aureus [11] = experiment: Antibacterial activity against Staphylococcus aureus ATCC 25923 after 24 hrs by NCCLS method; settings: ATCC 25923, 24 h
Staphylococcus aureus [12] = experiment: Antibacterial activity against Staphylococcus aureus
Streptococcus pyogenes = experiment: Antibacterial activity against Streptococcus pyogenes

Structure (SMILES): C=CCN1CCN(c2ccc3c4c(cccc24)C(=O)N(CC(O)Cn2c([N+](=O)[O-])cnc2C)C3=O)CC1 (stereo unspecified)
MIC (Staphylococcus aureus [1]): 13 to 1020 µM (≈ 6.56 to 515 µg/mL)
MIC (Escherichia coli [2]): 13 to 1020 µM (≈ 6.56 to 515 µg/mL)
MIC (Escherichia coli [3]): 13 to 1020 µM (≈ 6.56 to 515 µg/mL)
MIC (Pseudomonas aeruginosa [4]): 13 to 1020 µM (≈ 6.56 to 515 µg/mL)
MIC (Enterococcus faecalis): 13 to 1020 µM (≈ 6.56 to 515 µg/mL)
MIC (Staphylococcus aureus [5]): 13 to 1020 µM (≈ 6.56 to 515 µg/mL)
MIC (Pseudomonas aeruginosa [6]): 13 to 1020 µM (≈ 6.56 to 515 µg/mL)
MIC (Klebsiella pneumoniae): 13 to 1020 µM (≈ 6.56 to 515 µg/mL)
MIC (Staphylococcus aureus [7]): 13 to 1020 µM (≈ 6.56 to 515 µg/mL)
MIC (Acinetobacter baumannii): 13 to 1020 µM (≈ 6.56 to 515 µg/mL)

Structure (SMILES): CCn1cc(C(=O)OC)c(=O)c2cc(F)c(N3CCN(CCn4c([N+](=O)[O-])cnc4C)CC3)cc21
ED50 (Escherichia coli [8]): 3.5 to 13.2 mg/kg

MIC (Bacillus subtilis): 3.12 to 50 µg/mL (≈ 6.79 to 109 µM)
MIC (Pseudomonas aeruginosa [9]): 3.12 to 50 µg/mL (≈ 6.79 to 109 µM)
MIC (Escherichia coli [10]): 3.12 to 50 µg/mL (≈ 6.79 to 109 µM)
MIC (Staphylococcus aureus [11]): 3.12 to 50 µg/mL (≈ 6.79 to 109 µM)
Structure (SMILES): Cc1nn(-c2ccccc2)c(Oc2ccccc2)c1/C=N/NC(=O)Cn1c([N+](=O)[O-])cnc1C

MIC (Bacillus subtilis): 3.12 to 50 µg/mL (≈ 6.14 to 98.4 µM)
MIC (Pseudomonas aeruginosa [9]): 3.12 to 50 µg/mL (≈ 6.14 to 98.4 µM)
MIC (Escherichia coli [10]): 3.12 to 50 µg/mL (≈ 6.14 to 98.4 µM)
MIC (Staphylococcus aureus [11]): 3.12 to 50 µg/mL (≈ 6.14 to 98.4 µM)
Structure (SMILES): Cc1ccc(-n2nc(C)c(/C=N/NC(=O)Cn3c([N+](=O)[O-])cnc3C)c2Oc2ccc(Cl)cc2)cc1

MIC (Bacillus subtilis): 3.12 to 50 µg/mL (≈ 6.59 to 106 µM)
MIC (Pseudomonas aeruginosa [9]): 3.12 to 50 µg/mL (≈ 6.59 to 106 µM)
MIC (Escherichia coli [10]): 3.12 to 50 µg/mL (≈ 6.59 to 106 µM)
MIC (Staphylococcus aureus [11]): 3.12 to 50 µg/mL (≈ 6.59 to 106 µM)
Structure (SMILES): Cc1ccc(-n2nc(C)c(/C=N/NC(=O)Cn3c([N+](=O)[O-])cnc3C)c2Oc2ccccc2)cc1

Structure (SMILES): Cc1ncc([N+](=O)[O-])n1CC(O)CN1C(=O)c2cccc3c(N4CCN(CC#N)CC4)ccc(c23)C1=O (stereo unspecified)
MIC (Staphylococcus aureus [1]): 13 to 1020 µM (≈ 6.55 to 514 µg/mL)
MIC (Escherichia coli [2]): 13 to 1020 µM (≈ 6.55 to 514 µg/mL)
MIC (Escherichia coli [3]): 13 to 1020 µM (≈ 6.55 to 514 µg/mL)
MIC (Pseudomonas aeruginosa [4]): 13 to 1020 µM (≈ 6.55 to 514 µg/mL)
MIC (Enterococcus faecalis): 13 to 1020 µM (≈ 6.55 to 514 µg/mL)
MIC (Staphylococcus aureus [5]): 13 to 1020 µM (≈ 6.55 to 514 µg/mL)
MIC (Pseudomonas aeruginosa [6]): 13 to 1020 µM (≈ 6.55 to 514 µg/mL)
MIC (Klebsiella pneumoniae): 13 to 1020 µM (≈ 6.55 to 514 µg/mL)
MIC (Staphylococcus aureus [7]): 13 to 1020 µM (≈ 6.55 to 514 µg/mL)
MIC (Acinetobacter baumannii): 13 to 1020 µM (≈ 6.55 to 514 µg/mL)

Structure (SMILES): CCCCN1CCN(c2ccc3c4c(cccc24)C(=O)N(CC(O)Cn2c([N+](=O)[O-])cnc2C)C3=O)CC1 (stereo unspecified)
MIC (Staphylococcus aureus [1]): 13 to 1020 µM (≈ 6.77 to 531 µg/mL)
MIC (Escherichia coli [2]): 13 to 1020 µM (≈ 6.77 to 531 µg/mL)
MIC (Escherichia coli [3]): 13 to 1020 µM (≈ 6.77 to 531 µg/mL)
MIC (Pseudomonas aeruginosa [4]): 13 to 1020 µM (≈ 6.77 to 531 µg/mL)
MIC (Enterococcus faecalis): 13 to 1020 µM (≈ 6.77 to 531 µg/mL)
MIC (Staphylococcus aureus [5]): 13 to 1020 µM (≈ 6.77 to 531 µg/mL)
MIC (Pseudomonas aeruginosa [6]): 13 to 1020 µM (≈ 6.77 to 531 µg/mL)
MIC (Klebsiella pneumoniae): 13 to 1020 µM (≈ 6.77 to 531 µg/mL)
MIC (Staphylococcus aureus [7]): 13 to 1020 µM (≈ 6.77 to 531 µg/mL)
MIC (Acinetobacter baumannii): 13 to 1020 µM (≈ 6.77 to 531 µg/mL)

MIC (Staphylococcus aureus [12]): 184 to 2890 µM (≈ 67 to 1050 µg/mL)
MIC (Streptococcus pyogenes): 184 to 2890 µM (≈ 67 to 1050 µg/mL)
Structure (SMILES): Cc1nc([N+](=O)[O-])cn1Cc1nn(CNc2ccc(F)cc2)c(=S)o1

MIC (Bacillus subtilis): 3.12 to 50 µg/mL (≈ 6.53 to 105 µM)
MIC (Pseudomonas aeruginosa [9]): 3.12 to 50 µg/mL (≈ 6.53 to 105 µM)
MIC (Escherichia coli [10]): 3.12 to 50 µg/mL (≈ 6.53 to 105 µM)
MIC (Staphylococcus aureus [11]): 3.12 to 50 µg/mL (≈ 6.53 to 105 µM)
Structure (SMILES): Cc1nn(-c2ccccc2)c(Oc2ccc(F)cc2)c1/C=N/NC(=O)Cn1c([N+](=O)[O-])cnc1C

MIC (Bacillus subtilis): 3.12 to 50 µg/mL (≈ 6.59 to 106 µM)
MIC (Pseudomonas aeruginosa [9]): 3.12 to 50 µg/mL (≈ 6.59 to 106 µM)
MIC (Escherichia coli [10]): 3.12 to 50 µg/mL (≈ 6.59 to 106 µM)
MIC (Staphylococcus aureus [11]): 3.12 to 50 µg/mL (≈ 6.59 to 106 µM)
Structure (SMILES): Cc1ccc(Oc2c(/C=N/NC(=O)Cn3c([N+](=O)[O-])cnc3C)c(C)nn2-c2ccccc2)cc1

Structure (SMILES): CCOC(=O)c1cn(CC)c2nc(N3CCN(CCn4c([N+](=O)[O-])cnc4C)CC3)c(F)cc2c1=O
ED50 (Escherichia coli [8]): 3.5 to 13.2 mg/kg

MIC (Bacillus subtilis): 3.12 to 50 µg/mL (≈ 6.2 to 99.3 µM)
MIC (Pseudomonas aeruginosa [9]): 3.12 to 50 µg/mL (≈ 6.2 to 99.3 µM)
MIC (Escherichia coli [10]): 3.12 to 50 µg/mL (≈ 6.2 to 99.3 µM)
MIC (Staphylococcus aureus [11]): 3.12 to 50 µg/mL (≈ 6.2 to 99.3 µM)
Structure (SMILES): COc1ccc(Oc2c(/C=N/NC(=O)Cn3c([N+](=O)[O-])cnc3C)c(C)nn2-c2ccc(C)cc2)cc1

Structure (SMILES): Cc1ncc([N+](=O)[O-])n1CC(O)CN1C(=O)c2cccc3c(N4CCN(CCO)CC4)ccc(c23)C1=O (stereo unspecified)
MIC (Staphylococcus aureus [1]): 13 to 1020 µM (≈ 6.61 to 519 µg/mL)
MIC (Escherichia coli [2]): 13 to 1020 µM (≈ 6.61 to 519 µg/mL)
MIC (Escherichia coli [3]): 13 to 1020 µM (≈ 6.61 to 519 µg/mL)
MIC (Pseudomonas aeruginosa [4]): 13 to 1020 µM (≈ 6.61 to 519 µg/mL)
MIC (Enterococcus faecalis): 13 to 1020 µM (≈ 6.61 to 519 µg/mL)
MIC (Staphylococcus aureus [5]): 13 to 1020 µM (≈ 6.61 to 519 µg/mL)
MIC (Pseudomonas aeruginosa [6]): 13 to 1020 µM (≈ 6.61 to 519 µg/mL)
MIC (Klebsiella pneumoniae): 13 to 1020 µM (≈ 6.61 to 519 µg/mL)
MIC (Staphylococcus aureus [7]): 13 to 1020 µM (≈ 6.61 to 519 µg/mL)
MIC (Acinetobacter baumannii): 13 to 1020 µM (≈ 6.61 to 519 µg/mL)

Structure (SMILES): CCOC(=O)c1cn(CC)c2cc(N3CCN(CCn4c([N+](=O)[O-])cnc4C)CC3)c(F)cc2c1=O
ED50 (Escherichia coli [8]): 3.5 to 13.2 mg/kg

Structure (SMILES): CCN1CCN(c2ccc3c4c(cccc24)C(=O)N(CC(O)Cn2c([N+](=O)[O-])cnc2C)C3=O)CC1 (stereo unspecified)
MIC (Staphylococcus aureus [1]): 13 to 1020 µM (≈ 6.4 to 502 µg/mL)
MIC (Escherichia coli [2]): 13 to 1020 µM (≈ 6.4 to 502 µg/mL)
MIC (Escherichia coli [3]): 13 to 1020 µM (≈ 6.4 to 502 µg/mL)
MIC (Pseudomonas aeruginosa [4]): 13 to 1020 µM (≈ 6.4 to 502 µg/mL)
MIC (Enterococcus faecalis): 13 to 1020 µM (≈ 6.4 to 502 µg/mL)
MIC (Staphylococcus aureus [5]): 13 to 1020 µM (≈ 6.4 to 502 µg/mL)
MIC (Pseudomonas aeruginosa [6]): 13 to 1020 µM (≈ 6.4 to 502 µg/mL)
MIC (Klebsiella pneumoniae): 13 to 1020 µM (≈ 6.4 to 502 µg/mL)
MIC (Staphylococcus aureus [7]): 13 to 1020 µM (≈ 6.4 to 502 µg/mL)
MIC (Acinetobacter baumannii): 13 to 1020 µM (≈ 6.4 to 502 µg/mL)

Structure (SMILES): CCn1cc(C(=O)O)c(=O)c2cc(F)c(N3CCN(CCn4c([N+](=O)[O-])cnc4C)CC3)cc21
ED50 (Escherichia coli [8]): 2.56 to 3.88 mg/kg

Structure (SMILES): COC(=O)c1cn(C2CC2)c2cc(N3CCN(CCn4c([N+](=O)[O-])cnc4C)CC3)c(F)cc2c1=O
ED50 (Escherichia coli [8]): 3.5 to 13.2 mg/kg
